# In ChEMBL document CHEMBL5126559, “Insights into the structure-activity relationship of a type III secretion system inhibitor, aurodox” (Bioorg Med Chem Lett, 2022):
# How the values were obtained:
# [1] = Inhibition of bacterial type III secretion system in enteropathogenic Escherichia coli
# Escherichia coli = test: Antibacterial activity against enteropathogenic Escherichia coli; assay type: functional, organism-based
IC50 [1] [µg/mL],IC50 (Escherichia coli) [µg/mL],Compound
1.42,32.8,C/C=C\C=C\[C@@H]1O[C@](O)([C@H](CC)C(=O)NC/C=C/C=C(\C)[C@@H](OC)[C@@H](C)[C@@H]2O[C@H](/C=C/C=C/C=C(\C)C(=O)c3c(O)ccn(C)c3=O)[C@H](O)[C@@H]2O)[C@H](O)[C@H](O)C1(C)C
4.82,> 100,C/C=C\C=C\[C@@H]1O[C@](O)([C@H](CC)C(=O)NC/C=C/C=C(\C)[C@@H](OC)[C@@H](C)[C@@H]2O[C@H](/C=C/C=C/C=C(\C)C(=O)c3c(OC)ccn(C)c3=O)[C@H](O)[C@@H]2O)[C@H](O)[C@H](O)C1(C)C
1.75,30.6,C/C=C\C=C\[C@@H]1O[C@](O)([C@H](CC)C(=O)NC/C=C/C=C(\C)[C@@H](OC)[C@@H](C)[C@@H]2O[C@H](/C=C/C=C/C=C(\C)C(=O)c3c(O)ccn(C)c3=O)[C@H](O)[C@@H]2O)[C@H](O)[C@H](O)C1(C)C.[MgH2]
1.19,31.1,C/C=C\C=C\[C@@H]1O[C@](O)([C@H](CC)C(=O)NC/C=C/C=C(\C)[C@@H](OC)[C@@H](C)[C@@H]2O[C@H](/C=C/C=C/C=C(\C)C(=O)c3c(OC(=O)CC)ccn(C)c3=O)[C@H](O)[C@@H]2O)[C@H](O)[C@H](O)C1(C)C
4.16,> 100,C=CCOc1ccn(C)c(=O)c1C(=O)/C(C)=C/C=C/C=C/[C@H]1O[C@@H]([C@H](C)[C@H](OC)/C(C)=C/C=C/CNC(=O)[C@@H](CC)[C@@]2(O)O[C@@H](/C=C/C=C\C)C(C)(C)[C@@H](O)[C@H]2O)[C@@H](O)[C@H]1O
1.43,36.1,C/C=C\C=C\[C@@H]1O[C@](O)([C@H](CC)C(=O)NC/C=C/C=C(\C)[C@@H](OC)[C@@H](C)[C@@H]2O[C@H](/C=C/C=C/C=C(\C)C(=O)c3c(OC(C)=O)ccn(C)c3=O)[C@H](O)[C@@H]2O)[C@H](O)[C@H](O)C1(C)C
4.65,> 100,C/C=C\C=C\[C@@H]1O[C@](O)([C@H](CC)C(=O)NC/C=C/C=C(\C)[C@@H](OC)[C@@H](C)[C@@H]2O[C@H](/C=C/C=C/C=C(\C)C(=O)c3c(OS(C)(=O)=O)ccn(C)c3=O)[C@H](O)[C@@H]2O)[C@H](O)[C@H](O)C1(C)C
2.52,49.5,C/C=C\C=C\[C@@H]1O[C@](O)([C@H](CC)C(=O)NC/C=C/C=C(\C)[C@@H](OC)[C@@H](C)[C@@H]2O[C@H](/C=C/C=C/C=C(\C)C(=O)c3c([O-])ccn(C)c3=O)[C@H](O)[C@@H]2O)[C@H](O)[C@H](O)C1(C)C.[Li+]

# The remaining lines, values behind:
Compound,IC50 [1] [µg/mL],IC50 (Escherichia coli) [µg/mL]
CO[C@H](/C(C)=C/C=C/CN)[C@@H](C)[C@@H]1O[C@H](/C=C/C=C/C=C(\C)C(=O)c2c(O)ccn(C)c2=O)[C@H](O)[C@@H]1O,> 100,> 100
C/C=C\C=C\[C@@H]1O[C@](O)([C@H](CC)C(=O)NC/C=C/C=C(\C)[C@@H](OC)[C@@H](C)[C@@H]2O[C@H](/C=C/C=C/C=C(\C)C(=O)c3c(O)ccn(C)c3=O)[C@@H]3OC(=O)O[C@@H]32)[C@@H]2OC(=O)O[C@@H]2C1(C)C,> 100,> 100
C/C=C\C=C\[C@@H]1O[C@](O)([C@H](CC)C(=O)NC/C=C/C=C(\C)[C@@H](OC)[C@@H](C)[C@@H]2O[C@H](/C=C/C=C/C=C(\C)C(=O)c3c([O-])ccn(C)c3=O)[C@H](O)[C@@H]2O)[C@H](O)[C@H](O)C1(C)C.[Na+],2.29,53.9
C/C=C\C=C\[C@@H]1O[C@]2(O)C(CC)C(=O)O[C@@H]2[C@H](O)C1(C)C (some centres not stated),> 100,> 100
C/C=C\C=C\[C@@H]1O[C@](O)([C@H](CC)C(=O)NC/C=C/C=C(\C)[C@@H](OC)[C@@H](C)[C@@H]2O[C@H](/C=C/C=C/C=C(\C)C(=O)c3c(OC(=O)c4ccccc4)ccn(C)c3=O)[C@H](O)[C@@H]2O)[C@H](O)[C@H](O)C1(C)C,1.45,> 100
C/C=C\C=C\[C@@H]1O[C@](O)([C@H](CC)C(=O)NC/C=C/C=C(\C)[C@@H](OC)[C@@H](C)[C@@H]2O[C@H](/C=C/C=C/C=C(\C)C(=O)c3c(OS(=O)(=O)c4ccc(C)cc4)ccn(C)c3=O)[C@H](O)[C@@H]2O)[C@H](O)[C@H](O)C1(C)C,19,> 100
C/C=C\C=C\[C@@H]1O[C@](O)([C@H](CC)C(=O)NC/C=C/C=C(\C)[C@@H](OC)[C@@H](C)[C@@H]2O[C@H](/C=C/C=C/C=C(\C)C(=O)c3c(O)ccn(C)c3=O)[C@@H]3OC(=O)O[C@@H]32)[C@H](O)[C@H](O)C1(C)C,> 100,> 100
C/C=C\C=C\[C@@H]1O[C@](O)([C@H](CC)C(=O)NC/C=C/C=C(\C)[C@@H](OC)[C@@H](C)[C@@H]2O[C@H](/C=C/C=C/C=C(\C)C(=O)c3c(OCOC(N)=O)ccn(C)c3=O)[C@H](O)[C@@H]2O)[C@H](O)[C@H](O)C1(C)C,10.4,> 100
